Measurements published in patent US20250224398A1, “GASDERMIN E EXPRESSION IN HUMAN T CELLS AS A MARKER FOR PROINFLAMMATORY T CELL FUNCTIONS” (LEIBNIZ-INSTITUT FÜR NATURSTOFF-FORSCHUNG UND …, priority 2022, published 2025).
Entries after “also recorded” stand apart in the source; their conditions may differ. Residues, ends and D or L forms follow the SMILES beside them. *: point of attachment. Cbz = O=C(OCc1ccccc1)*; CH2F = FC*

How the values were obtained:
[1] = test system: human Th17 cells; test: Cytokine secretion by stimulated Th17 cells into culture supernatants (ELISA / Luminex); assay type: cell-based; conditions: for IL-1α secretion by Th17 cells: Th17 cells stimulated with anti-CD3 and anti-CD28 mAbs for 5 days, ELISA of supernatants
Method: (§1) Human T cells were cultured in RPMI 1640 medium supplemented with 1% (v/v) GlutaMAX™ Supplement, 1% (v/v) MEM nonessential Amino Acids Solution (100×), 1% (v/v) sodium pyruvate (100 mM), 0.1% 2-Mercaptoethanol (50 mM) (all from Gibco™), 1% (v/v) Penicillin-Streptomycin (Sigma-Aldrich), penicillin (500 U/ml), streptomycin (500 μg/ml), and 10% (v/v) fetal calf serum (Sigma-Aldrich). In some experiments, T cell culture was performed in the presence of recombinant cytokines (IL-6, 50 ng/ml; IL-12, 10 ng/ml; IL-4, 10 ng/ml; TGF-b, 10 ng/ml; IL-1b, 20 ng/ml; all from R&D Systems) or neutralizing antibodies (anti-IL-1a, […], BD Biosciences). […] T cells were stimulated with plate-bound anti-CD3 (2 μg/ml, clone TR66) and anti-CD28 mAbs (2 μg/ml, clone CD28.2; both from BD Biosciences) for 48 h before transfer into uncoated wells for another 3 days for a total culture period of 5 days, unless indicated otherwise in the legends. T cell clones were generated in non-polarizing conditions as described previously following single-cell deposition with fluorescence-activated cell sorting or by limiting dilution cloning (Gross, O. et al. Inflammasome activators induce interleukin-1alpha secretion via distinct pathways with differential requirement for the protease function of caspase-1. Immunity 36, 388-400, doi: 10.1016/j.immuni.2012.01.018 (2012)). Human monocytes were isolated from PBMCs by positive selection with CD14-specific MicroBeads (Miltenyi Biotec). Cells were stimulated with or without 1 μg/mL ultrapure lipopolysaccharide (LPS)-EB (t1r1-3pelps, InvivoGen) for 24 h and nigericin (10 μg/mL, InvivoGen) or ATP (5 mM, Thermo Fisher Scientific) for the last 30 mins. In some experiments, CD14^+ magnetic activated cell sorting (MACS)-sorted monocytes were differentiated into macrophages for 7 days in the presence of GM-CSF (R&D Systems).
(§2) Intracellular cytokine and transcription factor staining was performed as described before (Noster, R. et al. IL-17 and GM-CSF expression are antagonistically regulated by human T helper cells. Sci Transl Med 6, 241ra280, doi: 10.1126/scitranslmed.3008706 (2014)). Cells were stained with the following antibodies: anti-IL-1a-PE (364-3B3-14), anti-IL-4-FITC (MP4-25D2 5), anti-IL-17A-Pacific Blue (BL168), anti-IFN-g-APC-Cy7 (4S.B3), anti-IL-10-PE-Cy7 (JES3-9D7), (all from Biolegend), anti-RORgt-APC (AFKJS-9, eBioscience), anti-Ki67-BV421 (Biolegend), and anti-IL-1R1-PE (FAB269P, R&D Systems). Then, they were analyzed with a BD LSRFortessa (BD Biosciences), a CytoFLEX Flow Cytometer (Beckman Coulter) or a MACSQuant analyzer (Miltenyi Biotec). Flow cytometry data were analyzed with FlowJo software (Tree Star) or with Cytobank (Cytobank Inc.). The concentrations of cytokines in cell culture supernatants were measured by ELISA (Duoset ELISA kits from R&D Systems, Human Caspase-1SimpleStep ELISA Kit (Abcam) or by Luminex (eBioscience) according to standard protocols as indicated in the corresponding figure legends. Counting beads (CountBright™ Absolute Counting Beads, Thermo Fisher Scientific) were used to normalize for cell numbers if analysis of cumulative supernatants obtained from 5-day cell cultures was performed.

[2] = test system: human Th17 cells; test: Western blot / Jess Simple Western of Th17 cell lysates for caspase and GSDME cleavage; assay type: cell-based; conditions: for GSDME cleavage / caspase-3 cleavage: Th17 cells stimulated 5 days with anti-CD3 and anti-CD28 mAbs
Method: as §1
Cells were lysed in RIPA buffer (50 mM Tris, 150 mM NaCl, 1 mM EDTA, 0.1% NP-40, pH 7.5) containing protease inhibitor (Roche) and PhosphoSTOP Easypack (Roche). The protein concentrations of cell lysates were determined with a Pierce™ BCA Protein Assay Kit (Thermo Fisher Scientific™). Total protein ([…]) was boiled with 4× Laemmli sample buffer (Bio-Rad Laboratories) containing 355 mM 2-mercaptoethanol (Thermo Fisher Scientific) at 99° C. for 10 min. The supernatants and lysates were separated by SDS-polyacrylamide gel electrophoresis (PAGE) and transferred to a PVDF membrane (Bio-Rad Laboratories) by using a Mini-Protean system (Bio-Rad Laboratories) according to the manufacturer's protocol. The following primary antibodies were used for immunoblotting: mouse anti-human caspase-8 (Cell Signaling Technology), rabbit anti-human caspase-1 (Cell Signaling Technology), rabbit anti-human IL-1α (Abcam), mouse anti-human GAPDH (Merck millipore), mouse anti-human b-actin (Cell Signaling Technology), and rabbit anti-human gasdermin E (Abcam), rabbit anti-human caspase-3 (Cell Signaling Technology), mouse anti-human caspase-8 (Cell Signaling Technology), rabbit anti-human gasdermin D (Cell Signaling Technology), rabbit anti-human cleaved gasdermin D (Cell Signaling Technology), rabbit anti-NLRP3 (Cell Signaling Technology). HRP-conjugated anti-mouse and anti-rabbit IgG antibodies (Cell Signaling Technology) were used as secondary antibodies. Immunoreactive bands were detected by Pierce™ ECL Western Blotting Substrate or SuperSignal™ West Femto Maximum Sensitivity Substrate (both from Thermo Scientific™). Chemiluminescence signals were recorded with an Odyssey Imaging system (LI-COR Biosciences) and analyzed on Image Studio™ Lite (LI-COR Biosciences). Image contrast was enhanced in a linear fashion when necessary. Protein lysates were also prepared for automated Western blotting using a Jess System (ProteinSimple) according to the manufacturer's instructions. […]

[3] = test system: human Th17 cells; test: Intracellular cytokine staining and flow cytometry of Th17 cells; assay type: cell-based
Method: as §1, with “In some experiments, CD14^+ magnetic activated cell sorting (MACS)-sorted monocytes were differentiated into macrophages for 7 days in the presence of GM-CSF (R&D Systems).” left out
as §2, with “Cells were stained with the following antibodies: anti-IL-1a-PE (364-3B3-14), anti-IL-4-FITC (MP4-25D2 5), anti-IL-17A-Pacific Blue (BL168), anti-IFN-g-APC-Cy7 (4S.B3), anti-IL-10-PE-Cy7 (JES3-9D7), (all from Biolegend), anti-RORgt-APC (AFKJS-9, eBioscience), anti-Ki67-BV421 (Biolegend), and anti-IL-1R1-PE (FAB269P, R&D Systems).” left out

[4] = test system: human monocytes; test: IL-1a secretion by LPS/nigericin stimulated monocytes (ELISA); assay type: cell-based; conditions: LPS 24 h, nigericin 30 min
Method: as §1, with “Human monocytes were isolated from PBMCs by positive selection with CD14-specific MicroBeads (Miltenyi Biotec). Cells were stimulated with or without 1 μg/mL ultrapure lipopolysaccharide (LPS)-EB (t1r1-3pelps, InvivoGen) for 24 h and nigericin (10 μg/mL, InvivoGen) or ATP (5 mM, Thermo Fisher Scientific) for the last 30 mins. In some experiments, CD14^+ magnetic activated cell sorting (MACS)-sorted monocytes were differentiated into macrophages for 7 days in the presence of GM-CSF (R&D Systems).” left out

[5] = test system: patients suffering from the rare autoinflammatory Schnitzler syndrome; test: Treatment of Schnitzler syndrome patients with IL-1β-neutralizing antibody; IL-1α secretion of ex vivo Th17 cell clones (Luminex) and clinical symptoms; assay type: in vivo, human; conditions: treatment for 6 months; Th17 cell clones restimulated with CD3 and CD28 mAbs for 5 days
Method: Peripheral blood mononuclear cells (PBMCs) were isolated by density gradient centrifugation using Ficoll-Paque Plus (GE Healthcare). CD4^+ T cells were isolated from fresh PBMC by positive selection with CD4-specific MicroBeads (Miltenyi Biotec) using an autoMACS Pro Separator. […]
as §2, with “Cells were stained with the following antibodies: anti-IL-1a-PE (364-3B3-14), anti-IL-4-FITC (MP4-25D2 5), anti-IL-17A-Pacific Blue (BL168), anti-IFN-g-APC-Cy7 (4S.B3), anti-IL-10-PE-Cy7 (JES3-9D7), (all from Biolegend), anti-RORgt-APC (AFKJS-9, eBioscience), anti-Ki67-BV421 (Biolegend), and anti-IL-1R1-PE (FAB269P, R&D Systems).” left out, “performed. […]” for “performed.”

[6] = test system: patients suffering from the rare autoinflammatory Schnitzler syndrome; conditions: treatment for 6 months; cited from earlier work
[7] = test system: SGC-7901 and MKN-45; conditions: cited from earlier work
[8] = Th17 cells, restimulation with PMA and ionomycin in presence or absence of BFA
[9] = anti-CD3 and anti-CD28 mAb 5 days, PMA and ionomycin restimulation

COC(=O)CC[C@H](NC(=O)[C@H](CC(=O)OC)NC(=O)OCc1ccccc1)C(=O)N[C@H](C(=O)N[C@@H](CC(=O)OC)C(=O)CF)C(C)C [Z-DEVD-FMK]
IL-1α secretion by Th17 cells [1]: abrogating
GSDME cleavage [2]: reduced

C[C@H]1CCC/C=C/[C@@H]2C[C@H](O)C[C@H]2[C@H](O)/C=C/C(=O)O1 [BFA, brefeldin A]
intracellular IL-1α expression [3, 8]: not influenced
secretion of IL17A into the extracellular space [1, 8]: reduced

CSCC[C@@H](C=O)NC(=O)[C@H](CC(C)C)NC(=O)[C@H](CC(C)C)NC(C)=O [calpain inhibitor, N-Acetyl-L-leucyl-L-leucyl-L-methioninal] (Ac-Leu-Leu-Met-aldehyde)
LPS/nigericin-induced IL-1a secretion by monocytes [4]: not dependent on calpain
IL-1α secretion by Th17 cells [1]: dose-dependent reduction

gevokizumab: IL-1β-neutralizing antibody
IL-1α production by Th17 cells of Schnitzler syndrome patients [5]: significant reduction
clinical symptoms [6]: complete resolution

CC[C@H](C)[C@H](NC(=O)OCc1ccccc1)C(=O)N[C@@H](CCC(=O)OC)C(=O)N[C@H](C(=O)N[C@@H](CC(=O)OC)C(=O)CF)[C@@H](C)O [Z-IETD-FMK] (Cbz-IE(OMe)TD(OMe)-CH2F)
IL-1α secretion by Th17 cells [1]: abrogating
GSDME cleavage [2]: reduced
caspase-3 cleavage [2]: abrogation

canakinumab: IL-1β-neutralizing antibody
IL-1α production by Th17 cells of Schnitzler syndrome patients [5]: significant reduction
clinical symptoms [6]: complete resolution

C/C=C(/C)C(=O)O[C@H]1C(C)=C2[C@H]([C@@H]1OC(=O)CCCCCCC)[C@@](C)(OC(C)=O)C[C@H](OC(=O)CCC)[C@@]1(O)[C@H]2OC(=O)[C@@]1(C)O [thapsigargin]
IL-1α secretion by Th17 cells [1]: increased

CC(C)(O)c1coc(S(=O)(=O)NC(=O)Nc2c3c(cc4c2CCC4)CCC3)c1 [MCC950]
IL-1α secretion by Th17 cells [1]: significantly reduced; also recorded: significantly inhibited
GSDME cleavage [2]: significant reduction
caspase-3 cleavage [2]: significant reduction
caspase-8 cleavage ([2]; Th17 cells stimulated, day 5): less pronounced

CC(=O)N[C@@H](Cc1ccc(O)cc1)C(=O)N[C@H](C(=O)N[C@@H](C)C(=O)N[C@@H](CC(=O)O)C(=O)CCl)C(C)C [Ac-YVAD-CMK]
IL-1α secretion by Th17 cells [1]: did not inhibit; also recorded: significantly elevated

O=c1[nH]cc(F)c(=O)[nH]1 [5-FU]
cell viability ([7]; SGC-7901 and MKN-45 treated with 5-FU): significantly decreased
percentage of PI and APC Annexin-V double positive cells ([7]; after 5-FU treatment compared to control group): elevated
release of LDH [7]: elevated

B1: recombinant IL-1α: recombinant IL-1α applied exogenously to Th17 cells (protein, UniProt P01583 113-271, looked up)
Interleukin-1 alpha: SAPFSFLSNVKYNFMRIIKYEFILNDALNQSIIRANDQYLTAAALHNLDEAVKFDMGAYKSSKDDAKITVILRISKTQLYVTAQDEDQPVLLKEMPEIPKTITGSETNLLFFWETHGTKNYFTSVAHPNLFIATKQDYWVCLAGGPPSITDFQILENQA
IFN-γ expression by Th17 cells [3, 9]: upregulation
IL-10 expression by Th17 cells [3, 9]: reduced
IL-17A expression by Th17 cells [3, 9]: upregulation
